The test system of assay [1] is Human immunodeficiency virus. Briefly: Ratio of CC50 required to reduce the viability of mock-infected human CEM cells to EC50 required to inhibit HTLV-III B induced cytopathicity in that cells. The assay is classed as functional, Human immunodeficiency virus 1, CCRF-CEM. Background: Damage to the host cells serves as the signal in cytopathic effect assays.
The test system of a further assay is CCRF-CEM. The experiment in a line: Concentration required to reduce the viability of mock-infected human CEM cells. The assay is classed as functional.
The subject of assay [2] is Human immunodeficiency virus. The experiment in a line: Effective concentration required to inhibit HTLV-III B induced cytopathicity in human CEM cells. The assay is classed as functional, organism-based. Particulars: Human immunodeficiency virus 1, CCRF-CEM.

A value given as a limit tells only on which side of the number the result lay.

The term CC50 denotes the concentration giving 50% cytotoxicity. High values mean lower toxicity to the cells, low ones greater toxicity to the cells. What is called EC50 is the concentration that produces a half-maximal response. On to `CCN(CC)C(=S)N/N=C1\C(=O)N(CN2CCN(c3ncccn3)CC2)c2ccccc21`, for which, in assay [1], the Selectivity index is under 1. For the same compound, the CC50 in the assay with CCRF-CEM came out at 12.8 µM. This compound came in with an EC50 in assay [2] of over 12.8 µM.

On to `O=C1Nc2ccc(Cl)cc2[C@@](C#CC2CC2)(C(F)(F)F)O1` [EFAVIRENZ], for which the Selectivity index in assay [1] is over 256. The same compound registered a CC50 in the assay on CCRF-CEM of over 200 µM. The compound also returned an EC50 in assay [2] of 0.78 µM.

As to `CCN(CC)C(=S)N/N=C1\C(=O)N(CN2CCN(c3cc4c(cc3F)c(=O)c(C(=O)O)cn4CC)CC2)c2ccccc21`, the Selectivity index in assay [1] amounted to 12.02. In the assay on CCRF-CEM, the midpoint of cytotoxicity, the CC50, lay at 37.5 µM. Also, in assay [2], a half-maximal effect (EC50) was put at 3.12 µM.

For `CCN(CC)C(=S)N/N=C1\C(=O)N(CN(C)C)c2ccccc21`, the Selectivity index in assay [1] is given as under 1. This compound had a CC50 in the assay on CCRF-CEM of 2.86 µM. The EC50 in assay [2] is over 2.86 µM.

For `CCN(CC)C(=S)N/N=C1\C(=O)N(CN2CCN(c3cccc(C(F)(F)F)c3)CC2)c2ccccc21`, the Selectivity index in assay [1] is 17.14. This compound displayed a CC50 with CCRF-CEM of 44.9 µM. In addition, the EC50 in assay [2] amounted to 2.62 µM.

Turning to `CCN(CC)C(=S)N/N=C1\C(=O)N(CN2CCN(Cc3ccccc3)CC2)c2ccccc21`, the Selectivity index in assay [1] came out at 4.12. For the same compound, the CC50 in the assay on CCRF-CEM was found to be 14 µM. The same compound returned an EC50 in assay [2] of 3.4 µM.

With `CCN(CC)C(=S)N/N=C1\C(=O)N(CN2CCN(c3ccc([N+](=O)[O-])cc3)CC2)c2ccccc21`, the Selectivity index in assay [1] was under 1. Also, in the assay on CCRF-CEM, the CC50 is 11.9 µM. For the same compound, in assay [2], the EC50 is over 11.9 µM.

With `CCN(CC)C(=S)N/N=C1\C(=O)N(CN2CCN(c3ccc(F)cc3)CC2)c2ccccc21`, the Selectivity index in assay [1] is under 1. Moreover, in the assay with CCRF-CEM, the CC50 came to 14.5 µM. The EC50 in assay [2] was over 14.5 µM.

For the compound `CCN(CC)C(=S)N/N=C1\C(=O)N(CN2CC(C)OC(C)C2)c2ccccc21` (stereo not given), the Selectivity index in assay [1] was under 1. The CC50 in the assay with CCRF-CEM was found to be 13.3 µM. Moreover, the EC50 in assay [2] was over 13.3 µM.

Turning to `CCN(CC)C(=S)N/N=C1\C(=O)N(CN(Cc2ccccc2)Cc2ccccc2)c2ccccc21`, the Selectivity index in assay [1] was under 1. In the assay on CCRF-CEM, this compound had a CC50 of 8.29 µM. The compound also returned an EC50 in assay [2] of over 8.29 µM.

Source of the values: ChEMBL document CHEMBL1142841, “Synthesis and evaluation of anti-HIV activity of isatin beta-thiosemicarbazone derivatives” (Bioorg Med Chem Lett, 2005).
